Data: PubChem BioAssay (NCI)
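Exposure lasted 48 hours, with cells grown in 96-well plates and compounds tested at five concentrations. GI50: concentration for 50% inhibition of growth. TGI denotes the concentration required for complete inhibition of growth.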

What was measured:
Test in all cases: NCI-60 cell line screen, 48 h
NCI/ADR-RES ovarian = system: NCI/ADR-RES ovarian
NCI-H460 lung = system: NCI-H460 lung
CCRF-CEM leukemia = system: CCRF-CEM leukemia
MALME-3M melanoma = system: MALME-3M melanoma
MDA-MB-435 = system: MDA-MB-435
A549 NSCLC = system: A549 NSCLC
TK-10 renal = system: TK-10 renal
SK-MEL-28 melanoma = system: SK-MEL-28 melanoma
NCI-H522 lung = system: NCI-H522 lung
BT-549 breast = system: BT-549 breast

Structure (SMILES) | GI50 (NCI/ADR-RES ovarian) [µM] | TGI (NCI/ADR-RES ovarian) [µM] | GI50 (NCI-H460 lung) [µM] | TGI (NCI-H460 lung) [µM] | GI50 (CCRF-CEM leukemia) [µM] | TGI (CCRF-CEM leukemia) [µM] | GI50 (MALME-3M melanoma) [µM] | TGI (MALME-3M melanoma) [µM] | GI50 (MDA-MB-435) [µM] | TGI (MDA-MB-435) [µM] | GI50 (A549 NSCLC) [µM] | TGI (A549 NSCLC) [µM] | GI50 (TK-10 renal) [µM] | TGI (TK-10 renal) [µM] | GI50 (SK-MEL-28 melanoma) [µM] | TGI (SK-MEL-28 melanoma) [µM] | GI50 (NCI-H522 lung) [µM] | TGI (NCI-H522 lung) [µM] | GI50 (BT-549 breast) [µM] | TGI (BT-549 breast) [µM]
COc1ccc(C2ONC3=NCCN32)cc1 (stereo not given) | 40.4 | > 100 | 50.8 | > 100 | 26.6 | 61.7 | > 100 | > 100 | > 100 | > 100 | 86.9 | > 100 | > 100 | > 100 | > 100 | > 100 | > 100 | > 100 | 94.1 | > 100
COc1ccc(-c2cc(/C=C/C(=O)c3cc(OC)c(OC)c(OC)c3)[nH]n2)cc1OC | 2.69 | 37 | 1.04 | 3.6 | 0.342 | 3.13 | 2.32 | 6.19 | 1.78 | 4.05 | 2.39 | 9.34 | 3.27 | 11.8 | 1.92 | 4.41 | 1.33 | 2.68 | 1.36 | 2.93
O=c1oc2ccc(F)cc2c(=O)n1-c1ccc(Br)cc1F | 0.85 | 8.9 | 0.574 | 23.7 | 2.72 | > 100 | 0.317 | 2.03 | 0.623 | 6.64 | 2.29 | > 100 | 4.22 | 18 | 0.373 | 2.48 | 0.363 | 9.38 | 0.411 | 2.19
O=C(Cc1ccc(/C=C/C(=O)c2ncc[nH]2)cc1)Nc1ccc(C(F)(F)F)cc1 | 8.96 | > 33.3 | 3.6 | 10.7 | 1.55 | > 33.3 | 5.18 | 12.9 | 2.87 | 11.6 | 6.37 | 27.1 | 6.63 | 13.8 | 5.32 | 11.1 | 4.87 | 12.4 | 2.11 | 8.28
O=C(CCN1CCCC1)Nc1ccc2c(Nc3ccccc3)c3ccccc3nc2c1 | 1.84 | 7.22 | 0.0489 | 1.2 | 0.142 | 2.14 | 1.46 | 2.83 | 1.44 | 2.84 | 0.113 | 3.22 | 1.28 | 3.78 | 1.6 | 3.06 | 1.03 | 2.88 | 1.5 | 3.09
O=C(O)C1C(C(=O)O)C2(Cl)C(Cl)=C(Cl)C1(Cl)C2(Cl)Cl.[Cd] (stereo not given) | 28.6 | 80.3 | 3.71 | 18 | 16.5 | 61.4 | 2.33 | 7.05 | 7.61 | 25.2 | 18.7 | 39 | 19 | 34.7 | 24.1 | 54.7 | 0.412 | 1.78 | 1.33 | 2.74
